# Measured values as given in ChEMBL document CHEMBL3867465, “Gastroprotective activity of synthetic coumarins: Role of endogenous prostaglandins, nitric oxide, non-protein sulfhydryls and vanilloid receptors” (2016).
# Assays:
# Assay type in all cases: functional, Stomach
# Mus musculus [1] = test: (§1) Gastroprotective activity in Swiss albino mouse assessed as reduction in HCl/EtOH-induced gastric lesions by measuring lesion index at 30 mg/kg, sc pretreated followed by HCl/EtOH challenge measured after 1 hr (reference value: 38.8 +/- 1.6 millimeter)
# Mus musculus [2] = test: Gastroprotective activity in Swiss albino mouse assessed as reduction in HCl/EtOH-induced gastric lesions at 20 mg/kg, po pretreated for 50 mins followed by HCl/EtOH challenge measured after 1 hr; design: scale not given: the % may be the effect or the level left
# Mus musculus [3] = test: as §1, with “20” for “30”, “po” for “sc”, “pretreated for 50 mins” for “pretreated”, “hr in presence of PG synthesis inhibitor indomethacin” for “hr”
# Mus musculus [4] = test: as §1, with “20” for “30”, “po” for “sc”, “pretreated for 50 mins” for “pretreated”, “hr in presence of sulfhydryl blocker N-ethylmaleimide” for “hr”
# Mus musculus [5] = test: as §1, with “20” for “30”, “po” for “sc”, “pretreated for 50 mins” for “pretreated”, “hr in presence of NO synthase inhibitor NG-nitro-L-arginine methyl ester” for “hr”
# Mus musculus [6] = test: as §1, with “20” for “30”, “po” for “sc”, “pretreated for 50 mins” for “pretreated”, “hr in presence of vanilloid receptor antagonist ruthenium red” for “hr”
# Mus musculus [7] = test: Gastroprotective activity in Swiss albino mouse assessed as reduction in HCl/EtOH-induced gastric lesions by measuring lesion index at 20 mg/kg, po pretreated for 50 mins followed by HCl/EtOH challenge measured after 1 hr (reference value: 38.8 +/- 1.6 millimeter)
# Mus musculus [8] = test: Gastroprotective activity in Swiss albino mouse assessed as reduction in HCl/EtOH-induced gastric lesions by measuring lesion index at 70 mg/kg, ip pretreated followed by HCl/EtOH challenge measured after 1 hr (reference value: 38.8 +/- 1.6 millimeter)
# Mus musculus [9] = test: Gastroprotective activity in Swiss albino mouse assessed as reduction in HCl/EtOH-induced gastric lesions by measuring lesion index at 10 mg/kg, sc pretreated followed by HCl/EtOH challenge measured after 1 hr (reference value: 38.8 +/- 1.6 millimeter)
# Mus musculus [10] = test: Gastroprotective activity in Swiss albino mouse assessed as reduction in HCl/EtOH-induced gastric lesions by measuring lesion index at 100 mg/kg, po pretreated for 50 mins followed by HCl/EtOH challenge measured after 1 hr (reference value: 38.8 +/- 1.6 millimeter)
compound,measurement,setting,value
COc1ccc2c(c1)c(CC(=O)O)c(C)n2C(=O)c1ccc(Cl)cc1 [INDOMETHACIN],Activity,Mus musculus [1],41.1 mm
O=c1cc(CCl)c2c(O)cc(O)cc2o1,Activity,Mus musculus [2],42%
O=C(O)Cc1cc(=O)oc2cc(O)ccc12,Activity,Mus musculus [2],68%
O=c1cc(CCl)c2ccc(O)cc2o1,Activity,Mus musculus [2],57%
O=c1cc(CN2CCOCC2)c2ccc(O)cc2o1 [OXAZORONE],Activity,Mus musculus [2],75%
same,Activity,Mus musculus [3],13.6 mm
same,Activity,Mus musculus [4],28.8 mm
same,Activity,Mus musculus [5],34.7 mm
same,Activity,Mus musculus [6],14.4 mm
same,Activity,Mus musculus [7],10.3 mm
COC(=O)[C@@H](N)CCCNC(=N)N[N+](=O)[O-] [L-NAME],Activity,Mus musculus [8],35.7 mm
CC(=O)c1cc2ccc(O)cc2oc1=O,Activity,Mus musculus [2],15%
CCN1C(=O)C=CC1=O [N-ETHYLMALEIMIDE],Activity,Mus musculus [9],40.1 mm
CC(=O)c1cc2ccccc2oc1=O [3-ACETYLCOUMARIN],Activity,Mus musculus [2],66%
COc1cc2ccc(=O)oc2cc1O [SCOPOLETIN],Activity,Mus musculus [2],61%
CC1(C)[C@@H](OC(=O)CCC(=O)O)CC[C@]2(C)[C@H]3C(=O)C=C4[C@@H]5C[C@@](C)(C(=O)O)CC[C@]5(C)CC[C@@]4(C)[C@]3(C)CC[C@@H]12 [CARBENOXOLONE],Activity,Mus musculus [10],13.1 mm
"Cc1cc(=O)oc2cc(O)cc(O)c12 [5,7-DIHYDROXY-4-METHYLCOUMARIN]",Activity,Mus musculus [2],45%
Cc1cc(=O)oc2cc(O)ccc12 [HYMECROMONE],Activity,Mus musculus [2],31%
Cc1c(OCC(F)(F)F)ccnc1C[S+]([O-])c1nc2ccccc2[nH]1 (stereo not drawn) [LANSOPRAZOLE],Activity,Mus musculus [2],74%
O=c1cc(CN2CCN(CCO)CC2)c2ccc(O)cc2o1,Activity,Mus musculus [2],65%
O=C(O)c1cc2ccc(O)cc2oc1=O,Activity,Mus musculus [2],60%
CC(=O)c1cc2cccc(O)c2oc1=O,Activity,Mus musculus [2],41%
O=C(Oc1ccccc1)c1cc2ccc(O)cc2oc1=O,Activity,Mus musculus [2],63%
CCOC(=O)c1cc2ccccc2oc1=O,Activity,Mus musculus [2],35%
O=c1ccc2cc(O)c(O)cc2o1 [ESCULETIN],Activity,Mus musculus [2],17%
CNCc1cc(=O)oc2cc(O)ccc12,Activity,Mus musculus [2],49%
CCOC(=O)c1cc2cccc(OC)c2oc1=O,Activity,Mus musculus [2],0%
CCOC(=O)c1cc2cccc(O)c2oc1=O,Activity,Mus musculus [2],15%
